Our source for the IC50 and Ki values is ChEMBL document CHEMBL1138026, “Ketopyrrolidines and ketoazetidines as potent dipeptidyl peptidase IV (DPP IV) inhibitors” (Bioorg Med Chem Lett, 2004).

The nature of test [1]: Inhibitory concentration against dipeptidyl peptidase IV.
A short description of test [2]: Inhibition constant against dipeptidyl peptidase IV.

Broadly, the IC50 is the point on the concentration scale where inhibition reaches its midpoint. Low values mean greater potency in that assay, high ones weaker potency in that assay. The compound `O=c1c(C2CCCCC2)nc(-c2nccs2)c2n1CCC2` came in with an IC50 in test [1] of over 100000 nM.
Still for that read-out and setting: the result for `N[C@@H](C(=O)N1CCC[C@@H]1C(=O)c1nccs1)C1CCCCC1` reads 1000 nM.
On the same count and under the same terms, the result for `O=C(c1cccnc1)[C@@H]1CCCN1C(=O)[C@@H]1C[C@@H]2CCCC[C@@H]2N1` reads over 100000 nM.
Same read-out and setting: the same measure for `O=C(c1ccccc1)[C@@H]1CCCN1C(=O)[C@@H]1C[C@@H]2CCCC[C@@H]2N1`: over 100000 nM; for `N[C@@H](C(=O)N1CCCC[C@H]1C(=O)c1nccs1)C1CCCCC1`: over 100000 nM.
`Cn1cncc1C(=O)[C@@H]1CCCN1C(=O)[C@@H]1C[C@@H]2CCCC[C@@H]2N1`: in test [1], the IC50 was over 100000 nM.
As usually defined, the Ki is a dissociation constant, usually derived from enzyme kinetics or from competition with a known ligand. A higher Ki goes with a looser hold on the target. In test [2], `CC(C)[C@H](N)C(=O)N1CCC[C@H]1B(O)O` [TALABOSTAT] registered a Ki of 2 nM. This counts as single-digit nanomolar.
`O=C(c1nc2ccccc2s1)[C@@H]1CCCN1C(=O)CNC1CCCCC1`: the half-maximal inhibitory concentration (IC50) in test [1] was determined as 300 nM.
The compound `CC(C)(C)NCC(=O)N1CCC1C(=O)c1nc2ccccc2s1` (stereo not given) showed an IC50 in test [1] of 100 nM.
`CC(=O)[C@@H]1CCCN1C(=O)[C@@H]1C[C@@H]2CCCC[C@@H]2N1` registered a half-inhibitory concentration (IC50) in test [1] of over 100000 nM.
Compound `N#C[C@@H]1CCCN1C(=O)[C@@H](N)C1CCCCC1` came in with an IC50 in test [1] of 8 nM.
In test [1], `N[C@@H](C(=O)N1CCCC[C@@H]1C(=O)c1nccs1)C1CCCCC1` returned an IC50 of over 100000 nM.
`O=C(c1nc2ccccc2s1)C1CCN1C(=O)[C@@H]1C[C@@H]2CCCC[C@@H]2N1` (stereo not given in full): the IC50 in test [1] was found to be 115 nM.
In test [1], `O=C(c1nc2ccccc2s1)[C@@H]1CCN1C(=O)CNC1CCCCC1` gave an IC50 of 190 nM.
Turning to `CCC(C)C(N)C(=O)N1CCC[C@H]1C(=O)c1nc2ccccc2s1` (stereo not given in full), in test [1], the IC50 was found to be 100 nM.
The same measure, in the same setting: the same measure for `N[C@H](C(=O)N1CCCC1)C1CCCCC1`: 125 nM; for `C[C@H](N)C(=O)N1CCCC1P(=O)(Oc1ccccc1)Oc1ccccc1` (stereo not given in full): 15 nM.
Regarding `N[C@@H](C(=O)N1CC[C@@H]1C(=O)c1nccs1)C1CCCCC1`, in test [1], the IC50 is 40 nM.
On the same count and under the same terms, the result for `N[C@H](C(=O)N1CCSC1)C1CCCCC1` reads 150 nM; that for `CC[C@H](C)[C@H](N)C(=O)N1CC[C@H]1C(=O)c1nc2ccccc2s1`, 200 nM.
